Experimental data reported in PMC11094307, “Marine-derived EGFR inhibitors: novel compounds targeting breast cancer growth and drug resistance” (Frontiers in Pharmacology, 2024).
Several values for one entry are separate records, joined by “and”; a condition that tells them apart may be missing. Identical values can stand only once.

Key:
[1] = tested on: MCF-7 cells; assay: Cell cycle analysis by flow cytometry (PI); type: cell-based, human; details: 20 μM, 24 h
Protocol: After 24 h of treatment with various concentrations of compounds, MCF-7 cells were harvested and washed twice with phosphate-buffered saline (PBS). For cell cycle analysis, the cells were initially fixed with 70% ethanol at 4°C overnight and subsequently washed with PBS. The fixed cells were then resuspended in 1× PBS containing 0.5% Triton X-100, 50 μg/mL propidium iodide (PI), and 50 μg/mL DNase-free RNase A, and incubated at 37°C for 30 min in darkness. Following incubation, cell cycle distribution was assessed using a BD FACSCanto™ flow cytometer.

[2] = molecular target: T1, EGFR T790M (Homo sapiens, UniProt P00533, T790M); assay: Kinase inhibition assay (ADP-Glo, Promega); type: biochemical; details: in vitro kinase assay; read-out: IC50 against EGFR T790M
T1 construct: purchased Promega Corporation, USA
Protocol: (§1) The extracellular ligand-binding domain of EGFR, tagged with His, and the intracellular tyrosine kinase (TK) domain of EGFR, tagged with GST, were acquired from Sinobiological, China. […] Cell lines including MCF-7, A549, A431, H1299, HL-60, and MCF-10A were obtained from the China Infrastructure Cell Line Resources.
(§2) The experiments were conducted in accordance with the manufacturer’s guidelines (Promega). The procedure began with a kinase reaction, where 5 μL of 1× kinase buffer was utilized, and the mixture was incubated at room temperature for 60 min. This step was followed by the addition of 5 μL of ADP-Glo™ reagent to terminate the kinase reaction and to deplete any remaining ATP, with a subsequent incubation period of 40 min at room temperature. Next, 10 μL of kinase detection reagent was added to convert ADP back into ATP, and luciferase along with luciferin was introduced to facilitate ATP detection. This mixture was then incubated at room temperature for an additional 30 min. Detection was carried out using a BioTek Synergy4 instrument, and data analysis, including curve fitting and presentation, was performed using GraphPad Prism version 5.0.
(§3) All experiments were repeated at least three times, and the data are presented as mean ± standard deviation (SD). The statistical analyses were performed using Origin. EC50 or IC50 values were obtained by fitting the data to a four-parameter Hill model of the graph of log dose against percentage cell viability or inhibition from at least three sets of experiments. Difference between two groups were analyzed by Student’s t test (two-sided) and significance was set at p < 0.05. The specific details about statistical methods are introduced in respective figure legends.

[3] = molecular target: T2, EGFR L858R/T790M (Homo sapiens, UniProt P00533, L858R/T790M); assay: Kinase inhibition assay (ADP-Glo, Promega); type: biochemical; details: in vitro kinase assay; read-out: IC50 against EGFR L858R/T790M
T2 construct: purchased Promega Corporation, USA
Protocol: as §1, §2, §3

[4] = molecular target: T3, EGFR L858R (Homo sapiens, UniProt P00533, L858R); assay: Kinase inhibition assay (ADP-Glo, Promega); type: biochemical; details: in vitro kinase assay; read-out: IC50 against EGFR L858R
T3 construct: purchased Promega Corporation, USA
Protocol: as §1, §2, §3

[5] = molecular target: T4, WT EGFR (Homo sapiens, UniProt P00533); assay: Kinase inhibition assay (ADP-Glo, Promega); type: biochemical; details: in vitro kinase assay; read-out: IC50 against WT EGFR
T4 construct: purchased Promega Corporation, USA
Protocol: as §1, §2, §3

[6] = tested on: BCL-2; assay: Western blotting of MCF-7 lysates, BCL-2; type: cell-based, human; details: for BCL-2 WB Normalized: control 0 µM 0.841817367
Protocol: (§4) MCF-7 cell lysates were prepared by rinsing the cells twice with PBS and then solubilizing them in lysis buffer (NP40 supplemented with protease and phosphatase inhibitor cocktails) on ice. The solubilization process involved rotating the lysis buffer/cell mixture end over end for 10 min at 4°C. After centrifugation for 10 min at 4°C to remove insoluble material, the protein concentration of the solubilized protein was determined using a BCA assay. Subsequently, samples were diluted in SDS sample buffer. Equivalent amounts of protein were separated by SDS-PAGE, transferred to PVDF membranes, and probed with the indicated antibody. Prior to incubation with primary antibodies overnight at 4°C, the membranes were blocked with 5% skim milk-TBST. The antibodies and their sources were as follows: PARP1 (1:500, Santa Cruz Biotechnology), Cleaved Caspase-3 (1:1000, Cell Signaling Technology), BAX (1:500, Santa Cruz Biotechnology), BCL-2 (1:500, Santa Cruz Biotechnology), and GAPDH (1:500, Santa Cruz Biotechnology). Following incubation with horseradish peroxidase-conjugated goat anti-mouse or goat anti-rabbit secondary antibody (Santa Cruz Biotechnology), the detected proteins were visualized using the Pierce Enhanced Chemiluminescence (ECL) reagent and a UV Products imaging system. Band intensities were quantified using the National Institutes of Health ImageJ software.

[7] = tested on: MCF-10A cells; assay: MTT assay, MCF-10A; type: cell-based, human; details: MCF-10A (non-tumorigenic epithelial), 10 μM
Protocol: The cell lines MCF-7 and A431 were cultured in Dulbecco’s Modified Eagle’s Medium (DMEM, Gibco, USA), while HL-60, H1299, and A549 cells were maintained in RPMI-1640 medium (Gibco, USA). Both mediums were enriched with 10% fetal bovine serum and 1% penicillin/streptomycin. […] All cell cultures were incubated at 37°C in an atmosphere containing 5% CO2.
Cells in the exponential growth phase were seeded into 96-well plates and allowed to adhere overnight. Subsequently, they were treated in triplicate with various concentrations of the compounds (0, 1.56, 3.13, 6.25, 12.5, 25, 50, 100 µM), […]. After 24 h, 20 µL of Methyl-thiazolyldiphenyl-tetrazolium bromide (MTT, 5 mg/mL, Thermo Fisher Scientific) was added to each well and incubated for a minimum of 4 h. Following the incubation, the medium containing the compounds and MTT was removed from each well, and 200 µL of dimethyl sulfoxide (DMSO) was added. The plates were then shaken for 10 min at 37°C to dissolve the formazan crystals. The absorbance was measured using a microplate reader (BioTek Synergy 4) at a wavelength of 490 nm.

[8] = tested on: Cleaved Caspase-3; assay: Western blotting of MCF-7 lysates, cleaved caspase-3; type: cell-based, human; details: for Cleaved Caspase-3 WB Normalized: control 0 µM 0.213235397
Protocol: as §4

[9] = tested on: BAX; assay: Western blotting of MCF-7 lysates, BAX; type: cell-based, human; details: for BAX WB Normalized: control 0 µM 0.795076455
Protocol: as §4

T4 sequence (P00533 25-1210): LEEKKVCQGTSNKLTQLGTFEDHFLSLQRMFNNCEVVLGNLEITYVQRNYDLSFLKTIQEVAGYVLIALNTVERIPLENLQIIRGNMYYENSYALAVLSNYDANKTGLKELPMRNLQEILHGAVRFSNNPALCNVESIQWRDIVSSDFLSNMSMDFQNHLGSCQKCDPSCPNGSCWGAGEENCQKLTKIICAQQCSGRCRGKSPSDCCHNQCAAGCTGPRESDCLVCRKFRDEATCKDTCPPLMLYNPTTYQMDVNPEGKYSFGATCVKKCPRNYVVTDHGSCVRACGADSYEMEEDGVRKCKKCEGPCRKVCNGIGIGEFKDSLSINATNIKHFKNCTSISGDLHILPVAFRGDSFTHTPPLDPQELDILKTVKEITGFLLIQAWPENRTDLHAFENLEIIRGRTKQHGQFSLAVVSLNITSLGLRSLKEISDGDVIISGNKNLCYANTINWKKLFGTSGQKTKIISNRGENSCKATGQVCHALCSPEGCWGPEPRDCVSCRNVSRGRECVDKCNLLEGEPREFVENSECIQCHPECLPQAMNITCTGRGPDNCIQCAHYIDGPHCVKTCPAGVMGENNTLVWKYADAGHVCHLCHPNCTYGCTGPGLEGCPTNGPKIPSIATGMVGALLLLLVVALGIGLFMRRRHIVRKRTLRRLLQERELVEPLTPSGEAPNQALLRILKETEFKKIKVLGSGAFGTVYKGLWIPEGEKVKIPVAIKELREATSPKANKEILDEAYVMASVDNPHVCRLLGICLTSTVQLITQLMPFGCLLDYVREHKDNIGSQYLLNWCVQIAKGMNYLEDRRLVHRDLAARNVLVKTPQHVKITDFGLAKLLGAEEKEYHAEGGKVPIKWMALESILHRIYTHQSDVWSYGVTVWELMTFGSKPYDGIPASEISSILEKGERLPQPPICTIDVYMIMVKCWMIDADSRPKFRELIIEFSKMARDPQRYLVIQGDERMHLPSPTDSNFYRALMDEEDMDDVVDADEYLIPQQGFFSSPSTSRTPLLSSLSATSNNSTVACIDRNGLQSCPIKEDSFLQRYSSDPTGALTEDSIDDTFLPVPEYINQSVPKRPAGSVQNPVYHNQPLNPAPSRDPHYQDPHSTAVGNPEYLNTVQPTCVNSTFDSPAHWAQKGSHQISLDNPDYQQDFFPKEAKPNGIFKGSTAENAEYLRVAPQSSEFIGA
T1 sequence (P00533 25-1210 T790M): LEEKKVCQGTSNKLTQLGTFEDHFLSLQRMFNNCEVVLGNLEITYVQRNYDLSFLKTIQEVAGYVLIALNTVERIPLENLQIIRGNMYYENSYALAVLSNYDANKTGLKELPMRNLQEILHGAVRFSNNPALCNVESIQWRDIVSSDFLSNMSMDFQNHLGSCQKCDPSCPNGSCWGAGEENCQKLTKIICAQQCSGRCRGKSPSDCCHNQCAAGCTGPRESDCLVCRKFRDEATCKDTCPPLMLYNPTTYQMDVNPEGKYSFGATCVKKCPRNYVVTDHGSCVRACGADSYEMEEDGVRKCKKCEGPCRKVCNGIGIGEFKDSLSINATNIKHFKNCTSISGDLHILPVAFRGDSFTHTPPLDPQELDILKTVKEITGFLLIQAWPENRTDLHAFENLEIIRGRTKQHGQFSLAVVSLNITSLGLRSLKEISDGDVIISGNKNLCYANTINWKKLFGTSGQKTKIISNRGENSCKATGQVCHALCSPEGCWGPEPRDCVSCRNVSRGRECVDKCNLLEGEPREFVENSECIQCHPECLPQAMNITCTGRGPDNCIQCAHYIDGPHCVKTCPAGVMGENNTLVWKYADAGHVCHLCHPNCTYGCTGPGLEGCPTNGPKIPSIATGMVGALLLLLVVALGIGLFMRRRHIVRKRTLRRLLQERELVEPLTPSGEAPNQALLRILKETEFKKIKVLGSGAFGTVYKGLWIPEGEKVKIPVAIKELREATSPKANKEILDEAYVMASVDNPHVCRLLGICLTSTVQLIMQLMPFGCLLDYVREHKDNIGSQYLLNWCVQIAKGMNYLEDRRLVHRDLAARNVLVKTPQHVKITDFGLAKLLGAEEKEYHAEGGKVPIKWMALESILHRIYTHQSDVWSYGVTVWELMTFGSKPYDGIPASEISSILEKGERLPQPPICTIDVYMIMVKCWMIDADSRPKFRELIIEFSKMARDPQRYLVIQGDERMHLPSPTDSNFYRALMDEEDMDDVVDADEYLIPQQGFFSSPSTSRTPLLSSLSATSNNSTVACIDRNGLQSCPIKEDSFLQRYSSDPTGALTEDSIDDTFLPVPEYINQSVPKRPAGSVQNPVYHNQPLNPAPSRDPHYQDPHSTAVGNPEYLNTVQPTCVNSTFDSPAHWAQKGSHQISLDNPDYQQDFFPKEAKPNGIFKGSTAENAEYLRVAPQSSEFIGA
T2 sequence (P00533 25-1210 T790M/L858R): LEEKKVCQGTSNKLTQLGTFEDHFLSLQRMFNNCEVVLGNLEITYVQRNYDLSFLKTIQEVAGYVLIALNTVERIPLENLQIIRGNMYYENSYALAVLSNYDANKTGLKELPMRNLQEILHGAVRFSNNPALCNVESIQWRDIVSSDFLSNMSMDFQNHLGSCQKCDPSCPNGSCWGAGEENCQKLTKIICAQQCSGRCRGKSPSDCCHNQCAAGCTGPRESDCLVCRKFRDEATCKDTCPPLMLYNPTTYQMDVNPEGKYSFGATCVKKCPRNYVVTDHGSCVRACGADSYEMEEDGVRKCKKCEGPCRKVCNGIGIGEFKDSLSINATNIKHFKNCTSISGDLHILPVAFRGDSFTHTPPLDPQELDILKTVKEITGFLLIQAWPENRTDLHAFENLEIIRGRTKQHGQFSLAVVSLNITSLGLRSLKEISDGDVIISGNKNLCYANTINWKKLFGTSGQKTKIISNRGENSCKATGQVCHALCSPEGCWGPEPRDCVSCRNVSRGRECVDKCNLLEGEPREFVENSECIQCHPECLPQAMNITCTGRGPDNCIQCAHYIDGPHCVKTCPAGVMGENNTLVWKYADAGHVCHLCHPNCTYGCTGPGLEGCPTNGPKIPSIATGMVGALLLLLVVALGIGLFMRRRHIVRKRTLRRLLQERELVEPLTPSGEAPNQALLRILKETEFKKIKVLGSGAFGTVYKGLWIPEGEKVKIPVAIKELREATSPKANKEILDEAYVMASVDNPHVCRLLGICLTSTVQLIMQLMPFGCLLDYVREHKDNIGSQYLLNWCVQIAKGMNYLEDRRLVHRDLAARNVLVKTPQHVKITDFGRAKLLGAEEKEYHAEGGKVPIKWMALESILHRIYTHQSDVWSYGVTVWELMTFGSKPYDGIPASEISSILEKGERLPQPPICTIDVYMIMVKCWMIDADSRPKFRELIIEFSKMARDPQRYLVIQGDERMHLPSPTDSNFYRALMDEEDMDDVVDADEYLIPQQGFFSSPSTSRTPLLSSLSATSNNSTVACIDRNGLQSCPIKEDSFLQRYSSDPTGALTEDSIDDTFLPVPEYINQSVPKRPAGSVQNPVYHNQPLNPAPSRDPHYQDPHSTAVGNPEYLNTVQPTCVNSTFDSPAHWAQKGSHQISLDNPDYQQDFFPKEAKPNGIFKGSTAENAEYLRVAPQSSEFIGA
T3 sequence (P00533 25-1210 L858R): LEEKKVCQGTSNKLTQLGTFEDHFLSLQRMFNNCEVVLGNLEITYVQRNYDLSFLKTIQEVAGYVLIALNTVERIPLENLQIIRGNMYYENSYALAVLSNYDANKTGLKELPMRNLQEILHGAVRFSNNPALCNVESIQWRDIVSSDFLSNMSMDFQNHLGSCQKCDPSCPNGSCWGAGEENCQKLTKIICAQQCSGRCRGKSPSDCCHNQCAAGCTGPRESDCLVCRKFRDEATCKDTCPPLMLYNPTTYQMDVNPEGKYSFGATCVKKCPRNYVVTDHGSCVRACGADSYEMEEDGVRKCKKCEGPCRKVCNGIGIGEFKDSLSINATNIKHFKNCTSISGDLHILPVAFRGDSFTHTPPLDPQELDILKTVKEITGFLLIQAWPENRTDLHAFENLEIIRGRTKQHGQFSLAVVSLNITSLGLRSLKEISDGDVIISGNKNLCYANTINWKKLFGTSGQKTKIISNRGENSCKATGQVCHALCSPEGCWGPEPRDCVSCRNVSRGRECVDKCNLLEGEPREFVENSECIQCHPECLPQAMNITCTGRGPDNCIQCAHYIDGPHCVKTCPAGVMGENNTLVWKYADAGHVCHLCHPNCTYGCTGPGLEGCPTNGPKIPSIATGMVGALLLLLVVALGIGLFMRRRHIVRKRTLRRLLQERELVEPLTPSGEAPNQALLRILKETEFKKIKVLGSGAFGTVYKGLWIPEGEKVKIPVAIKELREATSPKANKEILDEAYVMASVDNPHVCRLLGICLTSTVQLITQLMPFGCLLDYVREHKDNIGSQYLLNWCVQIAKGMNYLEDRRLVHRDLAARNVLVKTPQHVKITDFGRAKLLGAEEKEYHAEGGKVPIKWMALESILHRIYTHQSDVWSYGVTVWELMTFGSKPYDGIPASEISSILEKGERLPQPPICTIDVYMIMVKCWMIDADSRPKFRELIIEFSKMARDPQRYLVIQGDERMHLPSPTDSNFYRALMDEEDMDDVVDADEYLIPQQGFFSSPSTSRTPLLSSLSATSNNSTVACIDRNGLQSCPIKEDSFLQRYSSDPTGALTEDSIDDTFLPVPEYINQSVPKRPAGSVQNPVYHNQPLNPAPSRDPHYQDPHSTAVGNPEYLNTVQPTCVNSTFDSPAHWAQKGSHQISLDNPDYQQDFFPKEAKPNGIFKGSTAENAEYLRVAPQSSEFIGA

SMILES: COC(=O)C/C(C)=C/C(=O)O[C@@H]1C[C@@H](C)[C@H]2[C@@H](C=C[C@H](CC(C)C)[C@]2(C)C(=O)/C=C\O)[C@@H]1O [Tandyukisin]
- percentage of cells in G0/G1 phase [1]: 85.67%
- IC50 [2]: 32.6 ± 0.6 nM
- IC50 [3]: 237 ± 28 nM
- IC50 [4]: 3.1 ± 0.1 nM
- IC50 [5]: 10.6 nM and 10 nM and ~10 nM
- BCL-2 WB Gray Value ([6]; 5 µM): 41097.258
- BCL-2 WB Normalized ([6]; 5 µM): 0.9373
- BCL-2 WB Gray Value ([6]; 10 µM): 21588.48
- BCL-2 WB Normalized ([6]; 10 µM): 0.4959
- BCL-2 WB Gray Value ([6]; 20 µM): 7215.723
- BCL-2 WB Normalized ([6]; 20 µM): 0.211
- cell lethality percentage [7]: 8.9% ± 1.5%
- Cleaved Caspase-3 WB Gray Value ([8]; 5 µM): 17172.004
- Cleaved Caspase-3 WB Normalized ([8]; 5 µM): 0.3916
- Cleaved Caspase-3 WB Gray Value ([8]; 10 µM): 22734.418
- Cleaved Caspase-3 WB Normalized ([8]; 10 µM): 0.5222
- Cleaved Caspase-3 WB Gray Value ([8]; 20 µM): 173083.238
- Cleaved Caspase-3 WB Normalized ([8]; 20 µM): 5.061
- expression level of cleaved caspase-3 protein ([8]; MCF-7, upon treatment): increased
- BAX WB Gray Value ([9]; 5 µM): 19561.731
- BAX WB Normalized ([9]; 5 µM): 0.4461
- BAX WB Gray Value ([9]; 10 µM): 48768.744
- BAX WB Normalized ([9]; 10 µM): 1.12
- BAX WB Gray Value ([9]; 20 µM): 33049.489
- BAX WB Normalized ([9]; 20 µM): 0.9664
